{"source": "patent US8680059B2", "about": "“Oligopeptide acetate and formulations thereof” (Biotempt B.V., priority 1998, dated 2014)", "key": {"[1]": {"tested_on": "RAW 264.7 murine macrophage cell line", "experiment": "Nitrite (NO) production in LPS-stimulated RAW 264.7 macrophages", "assay_type": "cell-based", "settings": "co-stimulated with LPS 10 microg/ml, peptide even at 1 pg/ml, 24 hours", "description": "Cell culture. The RAW 264.7 murine macrophage cell line, obtained from American Type Culture Collection (Manassas, Va., USA), were cultured at 37° C. in 5% CO2 using DMEM containing 10% fetal calf serum (FCS), 50 U/ml penicillin, 50 μg/ml streptomycin, […] Na-pyruvate, 2 mM glutamine and 50 μM 2-mercaptoethanol (Bio Whittaker, Europe). The medium was changed every 2 days.\nNitrite measurements. Nitrite production was measured in the RAW 264.7 macrophage supernatants. The cells (7.5×10^5/ml) were cultured in 48-well plates in […] of culture medium. The cells were stimulated with LPS (10 microg/ml) and/or peptide (1 pg/ml, 1 ng/ml, 1 μg/ml) for 24 hours, then the culture media were collected. Nitrite was measured by adding 100 microl of Griess reagent (Sigma) to 100 microl samples of culture medium. The OD540 was measured using a microplate reader, and the nitrite concentration was calculated by comparison with the OD540 produced using standard solutions of sodium nitrite in the culture medium."}, "[2]": {"tested_on": "mice, 25 minutes renal ischemia/reperfusion", "experiment": "Mouse renal ischemia reperfusion test (mortality, BUN/serum urea)", "assay_type": "in vivo", "set-up": "BUN, mean / Urea level: unit not given here", "settings": "for BUN, mean: 5 mg/kg i.v.", "description": "SEQ ID NO:2 was tested and compared with PBS (control) in a double blind animal study for the peptide's relative ability to aid recovery in a mouse renal ischemia reperfusion test. In this test, the mice were anesthetized, and one kidney from each mouse was removed. The other kidney was tied off for 25 minutes, and the serum urea levels were allowed to increase. Both before and after tying off, the peptide was administered to thirty (30) different mice (5 mg oligopeptide/kg body mass intravenously), after which, the mortality of the mice was determined for each oligopeptide as well as was the BUN concentration at two hours, 24 hours and 72 hours.\nUnder inhalation anesthesia, the left kidney with its artery and vein was isolated and occluded for 25 minutes using a microvascular clamp. During surgery animals were placed on a heating path to maintain body temperature at 37° C. Five minutes before placing the clamp, and 5 minutes before releasing the clamp, 5 mg/kg of peptide, dissolved in 0.1 mL of sterile saline, was administered intravenously. After reperfusion of the left kidney the right kidney was removed. Kidney function was assessed by measuring blood urea nitrogen before clamping, and at 2, 24, and 72 hours after reperfusion.\nTo determine dose-response relationships SEQ ID NO:2, was tested in a dose-response manner in the mice test as described above. Peptides were tested at 0.3, 1, 3, 10 and 30 mg/kg dosages given as described in Example I. Serum urea levels are presented in Table 3."}}, "data": [{"substance": "AQGV [tetrapeptide derived from human chorionic gonadotropin, alanine replacement of LQGV]", "values": [{"measurement": "NO production", "setting": "[1]", "value": "inhibited the production of NO"}, {"measurement": "Mortality in dose-response experiment", "setting": "[2]; 0.3 mg/kg, 24 h", "value": "0-9"}, {"measurement": "Urea level", "setting": "[2]; 0.3 mg/kg, 24 h", "value": 62.4}, {"measurement": "Mortality in dose-response experiment", "setting": "[2]; 0.3 mg/kg, 72 h", "value": "2-10"}, {"measurement": "Urea level", "setting": "[2]; 0.3 mg/kg, 72 h", "value": 86.7}, {"measurement": "Mortality in dose-response experiment", "setting": "[2]; 1.0 mg/kg, 24 h", "value": "0-10"}, {"measurement": "Urea level", "setting": "[2]; 1.0 mg/kg, 24 h", "value": 50.0}, {"measurement": "Mortality in dose-response experiment", "setting": "[2]; 1.0 mg/kg, 72 h", "value": "1-8"}, {"measurement": "Urea level", "setting": "[2]; 1.0 mg/kg, 72 h", "value": 52.6}, {"measurement": "Mortality in dose-response experiment", "setting": "[2]; 3.0 mg/kg, 24 h", "value": "1-10"}, {"measurement": "Urea level", "setting": "[2]; 3.0 mg/kg, 24 h", "value": 37.4}, {"measurement": "Mortality in dose-response experiment", "setting": "[2]; 3.0 mg/kg, 72 h", "value": "0-10"}, {"measurement": "Urea level", "setting": "[2]; 3.0 mg/kg, 72 h", "value": 19.6}, {"measurement": "mortality at 72 hours post-reperfusion", "setting": "[2]; 5 mg/kg i.v. before and after clamping, dead/total", "value": "0/10"}, {"measurement": "Mortality in dose-response experiment", "setting": "[2]; 10.0 mg/kg, 24 h", "value": "0-10"}, {"measurement": "Urea level", "setting": "[2]; 10.0 mg/kg, 24 h", "value": 41.2}, {"measurement": "Mortality in dose-response experiment", "setting": "[2]; 10.0 mg/kg, 72 h", "value": "0-8"}, {"measurement": "Urea level", "setting": "[2]; 10.0 mg/kg, 72 h", "value": 37.1}, {"measurement": "Mortality in dose-response experiment", "setting": "[2]; 30.0 mg/kg, 24 h", "value": "0-8"}, {"measurement": "Urea level", "setting": "[2]; 30.0 mg/kg, 24 h", "value": 47.8}, {"measurement": "Mortality in dose-response experiment", "setting": "[2]; 30.0 mg/kg, 72 h", "value": "3-10"}, {"measurement": "Urea level", "setting": "[2]; 30.0 mg/kg, 72 h", "value": 38.0}, {"measurement": "BUN, mean", "setting": "[2]; 2 hr after reperfusion", "value": 16.62}, {"measurement": "BUN, mean", "setting": "[2]; 24 hr after reperfusion", "value": 26.36}, {"measurement": "BUN, mean", "setting": "[2]; 72 hr after reperfusion", "value": 22.31}, {"measurement": "BUN, mean", "setting": "[2]; t = 0 hr (before clamping)", "value": 9.713}]}]}
